The values that follow come from patent publication US7820202B2, “Extended release particle dispersion” (Laboratorios Farmaceuticos Rovi S.A., priority 2000, dated 2010).

For data set [1] the following is noted: cited from earlier work.
Data set [2] is described as follows: Drug release from extended release particles in pH 7.4 phosphate buffer. The format is physicochemical. Particulars: pH 7.4 phosphate buffer (simulates body fluids); compared to the water-soluble salt, leuprolide acetate. The text has this: (§1) Like example 1. In addition, a water-insoluble salt of leuprolide, leuprolide oleate, was formed from aqueous leuprolide acetate and sodium oleate solutions. The insoluble salt was separated from the aqueous phase, dried and then added to the poly(d,l-lactide-co-glycolide) solution to form the first liquid preproduct, wherein the drug is dispersed and/or dissolved in the polymer solution. The first liquid preproduct is mixed with and dispersed in the second liquid preproduct.

Data set [3] is described as follows: Encapsulation efficiency of drug in PLGA extended release particles. In kind it is physicochemical. The settings on record: poly(d,l-lactide-co-glycolide) particles formed by mixing two liquid preproducts (ethyl acetate polymer solution / aqueous phase). The protocol:
A solution of poly(d,l-lactide-co-glycolide) (75/25, RG752 or 50/50, RG 502H or 503H from Böhringer Ingelheim) (40% w/w) in ethyl acetate (syringe 1) (200μl) (first liquid preproduct) is mixed with an aqueous phase (water for injection, Tween 80- or alternatively Pluronic F 68-, Na carboxy methylcellulose) (syringe 2) (2ml) (second liquid preproduct) by connecting the two syringes with a connector or by screwing the two syringes together and by pushing the plungers forward and backward (25 mixing cycles). The extended release particles are thereby formed, which are dispersed in the aqueous phase and which are ready to be injected.
as §1

For `CCOC(C)=O` [ethylacetate], the solubility in water entry in data set [1] was “approx. 10%”.

Consider `CC(=O)OCC(COC(C)=O)OC(C)=O` [triacetin], for which, in data set [1], the solubility in water result is reported as “approx. 8%”.

For leuprolide oleate, the “retardation in drug release” value in data set [2] is reported as “even more pronounced retardation in drug release”. The encapsulation efficiencies in data set [3] is on record as over 85%.
